Results as given in patent US7713965B2, “7-substituted 3-carboxy-oxadiazino-quinolone derivatives, their preparation and their application as anti-bacterials” (Vetoquinol SA, priority 2008, dated 2010).
Converted amounts (≈) assume the structure as drawn.

Columns and labels:
[1] = system: Pseudomonas aeruginosa (s = susceptible); experiment: MIC determination by microdilution in liquid medium, Pse aer s; type: cell-based; details: susceptible strain
[2] = system: Staphylococcus aureus (r = resistant); experiment: MIC determination by microdilution in liquid medium, Sta aur r; type: cell-based; details: read-out: MIC Sta aur r
[3] = system: Mannheimia haemolytica (r = resistant); experiment: MIC determination by microdilution in liquid medium, Man hae r; type: cell-based; details: resistant strain
Clostridium perfringens = experiment: microbe, parasite or virus in culture; type: cell-based; details: read-out: MIC Clo per
Mycoplasma bovis = experiment: MIC determination by microdilution in liquid medium, Myc bov; type: cell-based; details: Mycoplasmopsis bovis
[4] = system: Staphylococcus aureus (s = susceptible); experiment: MIC determination by microdilution in liquid medium, Sta aur s; type: cell-based; details: susceptible strain
Escherichia coli = experiment: MIC determination by microdilution in liquid medium, E coli; type: cell-based
[5] = system: Bordetella bronchiseptica; experiment: MIC determination by microdilution in liquid medium, Bor bron; type: cell-based
M. bovirhinis = experiment: MIC determination by microdilution in liquid medium, M. bovirhinis; type: cell-based; details: Mycoplasma
[6] = system: Mannheimia haemolytica (s = susceptible); experiment: MIC determination by microdilution in liquid medium, Man hae s; type: cell-based; details: susceptible strain
[7] = system: Pseudomonas aeruginosa (r = resistant); experiment: MIC determination by microdilution in liquid medium, Pse aer r; type: cell-based; details: read-out: MIC Pse aer r
E. coli ATCC 25922 = experiment: MIC determination by microdilution in liquid medium, E. coli ATCC 25922; type: cell-based; details: Escherichia coli, ATCC25922
Streptococcus uberis = experiment: MIC determination by microdilution in liquid medium, Str ube; type: cell-based
E. faecalis ATCC 29212 = experiment: MIC determination by microdilution in liquid medium, E. faecalis ATCC 29212; type: cell-based; details: Enterococcus faecalis, ATCC29212, read-out: MIC E. fae-calis ATCC 29212

CN1n2cc(C(=O)O)c(=O)c3cc(F)c(N4CC[C@H](NC(=O)C(F)(F)F)C4)c(c32)OC1(C)C (hydrate or solvate) [51]
melting point: 217 to 219 °C

CN1n2cc(C(=O)O)c(=O)c3cc(F)c(N4CC[C@H](NC(=O)C(F)(F)F)C4)c(c32)OC1(C)C (hydrate or solvate) [53]
melting point: 283 °C

CN1COc2c(N3CCC(CNc4cnccn4)C3)c(F)cc3c(=O)c(C(=O)O)cn1c23 (stereo not shown) (hydrate or solvate) [Example 1, 8-fluoro-3-methyl-6-oxo-9-[3-(pyrazin-2-ylaminomethyl)-pyrrolidin-1-yl]-2,3-dihydro-6H-1-oxa-3,3a-diaza-phenalene-5-carboxylic acid]
melting point: 238 to 240 °C

CN1COc2c(N3CCC(Nc4cnccn4)C3)c(F)cc3c(=O)c(C(=O)O)cn1c23 (stereo not shown) (hydrate or solvate) [Example 7]
melting point: 269 °C (dec.)

CN1COc2c(N3CCC(Nc4ccccn4)C3)c(F)cc3c(=O)c(C(=O)O)cn1c23 (stereo not shown) (hydrate or solvate) [Example 8]
melting point: 278 to 280 °C

CN1COc2c(N3CCC(Nc4nncs4)C3)c(F)cc3c(=O)c(C(=O)O)cn1c23 (stereo not shown) (hydrate or solvate) [Example 10, 8-Fluoro-3-methyl-6-oxo-9-[3-([1,3,4]thiadiazol-2-ylamino)-pyrrolidin-1-yl]-2,3-dihydro-6H1-oxa-3,3a-diaza-phenalene-5-carboxylic acid]
melting point: 320 °C (dec.)

CN1COc2c(N3CC[C@H](Nc4nccs4)C3)c(F)cc3c(=O)c(C(=O)O)cn1c23 (hydrate or solvate) [Example 18, 8-Fluoro-3-methyl-6-oxo-9-[(S)-3-(thiazol-2-ylamino)-pyrrolidin-1-yl]-2,3dihydro-6H-1-oxa-3,3a-diaza-phenalene-5-carboxylic acid]
melting point: 275 °C

CN1COc2c(N3CC[C@@H](Nc4nccs4)C3)c(F)cc3c(=O)c(C(=O)O)cn1c23 (hydrate or solvate) [Example 19, 8-Fluoro-3-methyl-6-oxo-9-[(R)-3-(thiazol-2-ylamino)-pyrrolidin-1-yl]-2,3-dihydro-6H-1-oxa-3,3a-diaza-phenalene-5-carboxylic acid]
melting point: 245 to 250 °C

CN1COc2c(N3CCC(NC(=O)C(F)(F)F)C3)c(F)cc3c(=O)c(C(=O)O)cn1c23 (stereo not shown) (hydrate or solvate) [Example 27, 8-Fluoro-3-methyl-6-oxo-9-[3-(2,2,2-trifluoro-acetylamino)-pyrrolidin-1-yl]-2,3-dihydro-6H-1-oxa-3,3a-diaza-phenalene-5-carboxylic acid]
melting point: 281 to 283 °C

CN1COc2c(N3CC[C@H](NC(=O)C(F)(F)F)C3)c(F)cc3c(=O)c(C(=O)O)cn1c23 (hydrate or solvate) [Example 28, 8-Fluoro-3-methyl-6-oxo-9-[(S)-3-(2,2,2-trifluoro-acetylamino)-pyrrolidin-1-yl]-2,3-dihydro-6H-1-oxa-3,3a-diaza-phenalene-5-carboxylic acid]
melting point: 273 to 275 °C

CN1COc2c(N3CC[C@@H](NC(=O)C(F)(F)F)C3)c(F)cc3c(=O)c(C(=O)O)cn1c23 (hydrate or solvate) [Example 29, 8-Fluoro-3-methyl-6-oxo-9-[(R)-3-(2,2,2-trifluoro-acetylamino)-pyrrolidin-1-yl]-2,3-dihydro-6H-1-oxa-3,3a-diaza-phenalene-5-carboxylic acid]
melting point: 273 to 275 °C

CN1COc2c(N3C[C@@H](N)C(C)(C)C3)c(F)cc3c(=O)c(C(=O)O)cn1c23 (hydrate or solvate) [Example 34, 9-((S)-4-Amino-3,3-dimethyl-pyrrolidin-1-yl)-8-fluoro-3-methyl-6-oxo-2,3-dihydro-6H-1-oxa-3,3a-diaza-phenalene-5-carboxylic acid]
melting point: 230 °C (dec.)

CN1COc2c(N3C[C@H](N)C(C)(C)C3)c(F)cc3c(=O)c(C(=O)O)cn1c23 (hydrate or solvate) [Example 35, 9-((R)-4-Amino-3,3-dimethyl-pyrrolidin-1-yl)-8-fluoro-3-methyl-6-oxo-2,3-dihydro-6H-1-oxa-3,3a-diaza-phenalene-5-carboxylic acid]
melting point: 222 °C (dec.)

CN1COc2c(N3CCC(C(O)c4nccs4)C3)c(F)cc3c(=O)c(C(=O)O)cn1c23 (stereo not shown) (hydrate or solvate) [Example 38, 8-Fluoro-9-[3-(hydroxy-thiazol-2-yl-methyl)-pyrrolidin-1-yl]-3-methyl-6-oxo-2,3-dihydro-6H-1-oxa-3,3a-diaza-phenalene-5-carboxylic acid]
melting point: 215 to 217 °C

CN1COc2c(N3CCC(C(N)c4nccs4)C3)c(F)cc3c(=O)c(C(=O)O)cn1c23 (stereo not shown) (hydrate or solvate) [Example 39, 9-[3-(Amino-thiazol-2-yl-methyl)-pyrrolidin-1-yl]-8-fluoro-3-methyl-6-oxo-2,3-dihydro-6H-1-oxa-3,3a-diaza-phenalene-5-carboxylic acid]
melting point: 233 to 235 °C

CN1COc2c(N3CC(N)C(C)(C)C3)c(F)cc3c(=O)c(C(=O)O)cn1c23 (racemic) (hydrate or solvate) [Example 33, 9-((R,S)-4-Amino-3,3-dimethyl-pyrrolidin-1-yl)-8-fluoro-3-methyl-6-oxo-2,3-dihydro-6H-1-oxa-3,3a-diaza-phenalene-5-carboxylic acid]
melting point: 237 °C (dec.)

CN1COc2c(N3CC(N)C(C)(C)C3)c(F)cc3c(=O)c(C(=O)O)cn1c23 (racemic) [Example 33, 9-((R,S)-4-Amino-3,3-dimethyl-pyrrolidin-1-yl)-8-fluoro-3-methyl-6-oxo-2,3-dihydro-6H-1-oxa-3,3a-diaza-phenalene-5-carboxylic acid]
MIC [1]: 0.5 µg/mL (≈ 1.33 µM) | MIC [2]: 2 µg/mL (≈ 5.31 µM) | MIC [3]: 8 µg/mL (≈ 21.3 µM) | MIC (Clostridium perfringens): 0.06 µg/mL (≈ 0.159 µM) | MIC (Mycoplasma bovis): 0.5 µg/mL (≈ 1.33 µM) | MIC [4]: < 0.03 µg/mL | MIC (Escherichia coli): 0.06 µg/mL (≈ 0.159 µM) | MIC [5]: 0.5 µg/mL (≈ 1.33 µM) | MIC (M. bovirhinis): 0.25 µg/mL (≈ 0.664 µM) | MIC [6]: 0.06 µg/mL (≈ 0.159 µM) | MIC [7]: 8 µg/mL (≈ 21.3 µM) | MIC (E. coli ATCC 25922): 0.03 µg/mL (≈ 0.0797 µM) | MIC (Streptococcus uberis): 0.12 µg/mL (≈ 0.319 µM)

CN1COc2c(N3CCC(CNc4cnccn4)C3)c(F)cc3c(=O)c(C(=O)O)cn1c23 (stereo not shown) [Example 1, 8-fluoro-3-methyl-6-oxo-9-[3-(pyrazin-2-ylaminomethyl)-pyrrolidin-1-yl]-2,3-dihydro-6H-1-oxa-3,3a-diaza-phenalene-5-carboxylic acid]
MIC [1]: 8 µg/mL (≈ 18.2 µM) | MIC [2]: 0.5 µg/mL (≈ 1.14 µM) | MIC [3]: 16 µg/mL (≈ 36.3 µM) | MIC (Clostridium perfringens): 0.06 µg/mL (≈ 0.136 µM) | MIC (Mycoplasma bovis): < 0.03 µg/mL | MIC [4]: < 0.03 µg/mL | MIC (E. faecalis ATCC 29212): ≤ 0.03 µg/mL | MIC (Escherichia coli): 0.25 µg/mL (≈ 0.568 µM) | MIC [5]: 0.5 µg/mL (≈ 1.14 µM) | MIC (M. bovirhinis): 0.06 µg/mL (≈ 0.136 µM) | MIC [6]: 0.06 µg/mL (≈ 0.136 µM) | MIC [7]: 16 µg/mL (≈ 36.3 µM) | MIC (E. coli ATCC 25922): 0.12 µg/mL (≈ 0.272 µM) | MIC (Streptococcus uberis): < 0.03 µg/mL

CN1COc2c(N3CCC(Nc4cnccn4)C3)c(F)cc3c(=O)c(C(=O)O)cn1c23 (stereo not shown) [Example 7]
MIC [1]: 2 µg/mL (≈ 4.69 µM) | MIC [2]: 0.5 µg/mL (≈ 1.17 µM) | MIC [3]: 16 µg/mL (≈ 37.5 µM) | MIC (Clostridium perfringens): 0.06 µg/mL (≈ 0.141 µM) | MIC (Mycoplasma bovis): < 0.03 µg/mL | MIC [4]: < 0.03 µg/mL | MIC (E. faecalis ATCC 29212): ≤ 0.03 µg/mL | MIC (Escherichia coli): 0.25 µg/mL (≈ 0.586 µM) | MIC [5]: 0.5 µg/mL (≈ 1.17 µM) | MIC (M. bovirhinis): 0.06 µg/mL (≈ 0.141 µM) | MIC [6]: 0.06 µg/mL (≈ 0.141 µM) | MIC [7]: 16 µg/mL (≈ 37.5 µM) | MIC (E. coli ATCC 25922): 0.25 µg/mL (≈ 0.586 µM) | MIC (Streptococcus uberis): 0.06 µg/mL (≈ 0.141 µM)

CN1COc2c(N3CCC(Nc4ccccn4)C3)c(F)cc3c(=O)c(C(=O)O)cn1c23 (stereo not shown) [Example 8]
MIC [1]: 8 µg/mL (≈ 18.8 µM) | MIC [2]: 4 µg/mL (≈ 9.4 µM) | MIC [3]: 32 µg/mL (≈ 75.2 µM) | MIC (Clostridium perfringens): < 0.03 µg/mL | MIC (Mycoplasma bovis): 0.06 µg/mL (≈ 0.141 µM) | MIC [4]: 0.06 µg/mL (≈ 0.141 µM) | MIC (E. faecalis ATCC 29212): 0.25 µg/mL (≈ 0.588 µM) | MIC (Escherichia coli): 0.5 µg/mL (≈ 1.18 µM) | MIC [5]: > 1 µg/mL | MIC (M. bovirhinis): 0.06 µg/mL (≈ 0.141 µM) | MIC [6]: 0.25 µg/mL (≈ 0.588 µM) | MIC [7]: > 32 µg/mL | MIC (E. coli ATCC 25922): 0.12 µg/mL (≈ 0.282 µM) | MIC (Streptococcus uberis): 0.25 µg/mL (≈ 0.588 µM)

CN1COc2c(N3CC[C@H](NC(=O)C(F)(F)F)C3)c(F)cc3c(=O)c(C(=O)O)cn1c23 [Example 28, 8-Fluoro-3-methyl-6-oxo-9-[(S)-3-(2,2,2-trifluoro-acetylamino)-pyrrolidin-1-yl]-2,3-dihydro-6H-1-oxa-3,3a-diaza-phenalene-5-carboxylic acid]
MIC [1]: 0.06 µg/mL (≈ 0.135 µM) | MIC [2]: 4 µg/mL (≈ 9 µM) | MIC [3]: 4 µg/mL (≈ 9 µM) | MIC (Clostridium perfringens): 0.12 µg/mL (≈ 0.27 µM) | MIC (Mycoplasma bovis): 1 µg/mL (≈ 2.25 µM) | MIC [4]: 0.12 µg/mL (≈ 0.27 µM) | MIC (E. faecalis ATCC 29212): 1 to 2 µg/mL (≈ 2.25 to 4.5 µM) | MIC (Escherichia coli): 0.03 µg/mL (≈ 0.0675 µM) | MIC [5]: 1 µg/mL (≈ 2.25 µM) | MIC [6]: 0.008 µg/mL (≈ 0.018 µM) | MIC [7]: 1 µg/mL (≈ 2.25 µM) | MIC (E. coli ATCC 25922): 0.03 µg/mL (≈ 0.0675 µM) | MIC (Streptococcus uberis): 0.25 µg/mL (≈ 0.563 µM)

CN1COc2c(N3C[C@H](N)C(C)(C)C3)c(F)cc3c(=O)c(C(=O)O)cn1c23 [Example 35, 9-((R)-4-Amino-3,3-dimethyl-pyrrolidin-1-yl)-8-fluoro-3-methyl-6-oxo-2,3-dihydro-6H-1-oxa-3,3a-diaza-phenalene-5-carboxylic acid]
MIC [1]: 0.5 µg/mL (≈ 1.33 µM) | MIC [2]: 2 µg/mL (≈ 5.31 µM) | MIC [3]: 8 µg/mL (≈ 21.3 µM) | MIC (Clostridium perfringens): 0.12 µg/mL (≈ 0.319 µM) | MIC (Mycoplasma bovis): 0.5 µg/mL (≈ 1.33 µM) | MIC [4]: 0.06 µg/mL (≈ 0.159 µM) | MIC (E. faecalis ATCC 29212): 0.25 µg/mL (≈ 0.664 µM) | MIC (Escherichia coli): 0.06 µg/mL (≈ 0.159 µM) | MIC [5]: 1 µg/mL (≈ 2.66 µM) | MIC [6]: 0.06 µg/mL (≈ 0.159 µM) | MIC [7]: 8 µg/mL (≈ 21.3 µM) | MIC (E. coli ATCC 25922): 0.03 µg/mL (≈ 0.0797 µM) | MIC (Streptococcus uberis): 0.12 µg/mL (≈ 0.319 µM)
